Values joined by “and” are separate entries in the source; they are usually repeats but may differ in a detail not shown here. Equal values may be shown once. Where a name gives a salt, the structure may show the parent alone. Read-outs that look alike come from different tables or passages of the source.
Columns and labels:
RSV (A2) [1] = assay: viral yield reduction assay (growth inhibition), RSV; type: cell-based, human respiratory syncytial virus; conditions: 4 days; for IC50: human respiratory syncytial virus, 96 h
Protocol: (§1) The compounds were tested for biological activity using viral yield reduction assays. Host cells (indicated as HF for human foreskin fibroblasts and as vero, the commonly used African green monkey cell line, in Tables 1 and 1a) were plated at 4×10^4 cells/well in cell growth medium with 2% fetal bovine serum or 2% calf serum in 96-well plates (0.1 ml/well) and incubated overnight. The compounds were added to individual wells to give final concentrations ranging from 50 to 0.1 μg/ml in two-fold concentration steps. After 1 hour, virus was added, and the incubation was continued for 4 days with RSV or CMV and for 2 days with HSV. At the end of the experiment, the amount of virus growth was quantitated and the yield reduction at various concentrations of compound was calculated. This allows estimation of the concentration of compound giving 50% reduction in virus growth (IC50).
(§2) Table 1. Fifty percent inhibitory concentrations for growth inhibition
(§3) (yield reduction) and for plaque formation were determined as described i
(§4) the text. The virus strains used were RSV (A2), CMV (Ad169), HSV1
(§5) (Patton). The host cells used were human foreskin fibroblasts (HF) and […]

RSV (A2) [2] = assay: viral plaque reduction assay, RSV A2; type: cell-based, human respiratory syncytial virus; conditions: Table 1; vero cells
CMV (Ad169) [3] = assay: viral plaque reduction assay, CMV Ad169; type: cell-based, human cytomegalovirus; conditions: Table 1; HF cells
RSV [4] = type: in vivo, cotton rats; conditions: EXPT 3, Lung/Plaque
[5] = test system: syncytium formation in cells previously infected with RSV; assay: syncytium formation in RSV-infected vero cells; type: cell-based, African green monkey
Protocol: This was done by infecting vero cells at a multiplicity of infection of 3 for 1 hour, then replacing the original medium with fresh medium. After 6 hours incubation, compound was added. After 24 and 48 hours, the infected cells were examined under the microscope to determine the extent of syncytium formation. Differences in the extent of syncytium formation due to the presence of compound were easily recognized and the compounds were easily ranked in terms of potency in this assay. The actual IC50's as judged by this method are approximate. They were 0.3 and 0.05 μg/ml for compounds 16 and 17, respectively.

RSV A2 = type: in vivo, cotton rats; conditions: for inhibition of RSV in vivo (summary): cotton rats, all experiments of Table 3
RSV [6] = type: in vivo, cotton rats; conditions: EXPT 3, Lavage/Plaque
CMV (Ad169) [7] = assay: viral yield reduction assay (growth inhibition), CMV; type: cell-based, human cytomegalovirus; conditions: Human betaherpesvirus 5, AD169, 96 h, HF cells, 4 days
Protocol: as §1, §2, §3, §4, §5

viral protein synthesis = viral protein synthesis in infected vero cells (mechanism of action); type: cell-based
Protocol: The time in the virus life-cycle when Example 1 exerts its effect was determined to increase understanding of the mechanism of action. This was accomplished by adding and removing the compound at various times relative to infection and assessing the effect on viral protein synthesis. Vero cells were infected on ice for 1 hour, unadsorbed virus was removed, and then the infected cells were incubated at 37° C. for 18 hours (virus adsorption will occur on ice, but fusion will not proceed until the temperature is raised to 18° C. or above). After the 18 hour incubation at 37° C. (when the bulk of ongoing protein synthesis was directed by viral RNAs), ^35 S-methionine was added for 2 hours, the cells were lysed, and the labeled proteins were analyzed on SDS-PAGE gels. The viral N, P, and M proteins were then evident. […] However, when the compound of Example 1 was added even after only 5 minutes incubation at 37° C., viral protein production was unimpeded. Therefore, the process inhibited was the fusion process or some closely succeeding step which is required for later viral gene expression.

[8] = i.n. d 0 15 mg/k, d 1,2,3 30 mg/k
[9] = EXPT 3, i.n. 30 mg/k d 1,2,3, Lavage/CPE
[10] = EXPT 3, i.n. d 0 15 mg/k, d 1 30 mg/k, Lavage/CPE
[11] = EXPT 3, i.n. d 0 15 mg/k, d 1,2,3 30 mg/k, Lavage/CPE
[12] = EXPT 3, i.p. 30 mg/k d 1,2,3, Lavage/CPE

## 4-[4.6-Di[3-aminophenyl-N,N-bis(2-carbamoylethyl)sulfonylimino]-1,3,5-triazin-2-ylamino]-4'-(4-[3-aminophenyl-N,N-bis(2-carbamoylethyl)sulfonylimino]- 6-[3-aminophenyl-N,N bis(3-propionic acid)-1,3,5-triazin-2-ylamino]-stilbene-2,2'-disulphonic acid, disodium salt [Example 10]
RSV (A2) [1]; HF cells
  IC50 in growth inhibition RSV/HF: < 3 µg/mL
RSV (A2) [1]; vero cells
  IC50 in growth inhibition RSV/VERO: 0.7 µg/mL

## 9.9-Dioxo-2,7-Bis[4,6-di[3-aminophenyl-N,N-bis(2-carbamoylethyl)sulfonylimino]-1,3,5-triazin-2-ylamino]-dibenzothiophen-3.6-disulfonic acid, disodium salt [Example 23]
RSV (A2) [2]
  IC50 in plaque assay RSV/VERO: 8 µg/mL
CMV (Ad169) [3]
  IC50 in plaque assay CMV/HF: 20 µg/mL

## 4,4'-Bis[4-chloro-6-di[4-amino-N'-[3-aminophenyl-N,N-bis(2-carbamoylethyl)sulfonylimino]-benzamide]-1,3,5-triazin-2-ylamino]-stilbene-2,2'-disulfonic acid, disodium salt [Example 24]
RSV (A2) [1]; vero cells
  IC50 in growth inhibition RSV/VERO: 50 µg/mL

## NC(=O)CCN(CCC(N)=O)S(=O)(=O)c1cccc(Nc2nc(Nc3cccc(S(=O)(=O)N(CCC(N)=O)CCC(N)=O)c3)nc(Nc3ccc(-c4ccc(Nc5nc(Nc6cccc(S(=O)(=O)N(CCC(N)=O)CCC(N)=O)c6)nc(Nc6cccc(S(=O)(=O)N(CCC(N)=O)CCC(N)=O)c6)n5)cc4S(=O)(=O)O)c(S(=O)(=O)O)c3)n2)c1 [Example 4, 4,4'-Bis[4,6-di[3-aminophenyl-N,N-bis(2-carbamoyl-ethyl)sulfonylimino]-1,3,5-triazin-2-ylamino]-biphenyl-2,2'-disulfonic acid, disodium salt]
RSV [4]; i.n. 30 mg/k d 1,2,3
  Fold red.: 1.18 log10
  Mean titer: 3.37 log10/g lung
RSV [4]; i.n. d 0 15 mg/k, d 1 30 mg/k
  Fold red.: 2.23 log10
  Mean titer: 2.32 log10/g lung
RSV [4]; [8]
  Fold red.: 2.3 log10
  Mean titer: 2.25 log10/g lung
RSV [4]; i.p. 30 mg/k d 1,2,3
  Fold red.: 0.26 log10
  Mean titer: 3.92 log10/g lung
[5]
  inhibition of syncytium formation: inhibit syncytium formation
RSV A2; [9]
  Fold red.: 2.51 log10
  Mean titer: 1.67 log10/g lung
RSV A2; [10]
  Fold red.: 2.52 log10
  Mean titer: 1.66 log10/g lung
RSV A2; [11]
  Fold red.: 2.13 log10
  Mean titer: 2.05 log10/g lung
RSV A2; [12]
  Fold red.: 0 log10
  Mean titer: 4.18 log10/g lung
RSV A2
  inhibition of RSV in vivo (summary): inhibit RSV in vivo
RSV A2; rat, in vivo
  Fold red.: 1.63 log10
  Mean titer: 2.05 log10/g lung
RSV [6]; i.n. 30 mg/k d 1,2,3
  Fold red.: 1.2 log10
  Mean titer: 3.09 log10/g lung
RSV [6]; i.n. d 0 15 mg/k, d 1 30 mg/k
  Fold red.: 2.03 log10
  Mean titer: 2.26 log10/g lung
RSV [6]; [8]
  Fold red.: 2.04 log10
  Mean titer: 2.25 log10/g lung
RSV [6]; i.p. 30 mg/k d 1,2,3
  Fold red.: 0.09 log10
  Mean titer: 4.1 log10/g lung

## NC(=O)CCN(CCC(N)=O)S(=O)(=O)c1cccc(Nc2nc(Cl)nc(Nc3ccc(/C=C/c4ccc(Nc5nc(Cl)nc(Nc6cccc(S(=O)(=O)N(CCC(N)=O)CCC(N)=O)c6)n5)cc4S(=O)(=O)O)c(S(=O)(=O)O)c3)n2)c1 [Example 8, 4,4'-Bis[4-chloro-6-[3-aminophenyl-N,N-bis(2-carbamoylethyl)sulfonylimino]-1,3,5-triazin-2-ylamino]-stilbene-2,2'-disulphonic acid, disodium salt]
RSV (A2) [1]; HF cells, read-out: IC50 in growth inhibition RSV/HF
  IC50: > 50 µg/mL
RSV (A2) [1]; vero cells, read-out: IC50 in growth inhibition RSV/VERO
  IC50: > 50 µg/mL
CMV (Ad169) [7]
  IC50: > 50 µg/mL

## NC(=O)c1ncn([C@@H]2O[C@H](CO)[C@@H](O)[C@H]2O)n1 [Ribavirin, reference compound]
RSV A2; rat, in vivo
  Fold red.: 0.8 log10
  Mean titer: 3.3 log10/g lung

## 4,4'-Bis[4,6-di[4-amino-N'-[3-aminophenyl-N,N-bis(2-hydroxyethyl)sulfonylimino]-benzensulfoamide]-1,3,5-triazin-2-ylamino]-stilbene-2,2'-disulfonic acid, disodium salt [Example 25]
RSV (A2) [1]; vero cells
  IC50 in growth inhibition RSV/VERO: 30 µg/mL

## NC(=O)CCN(CCC(N)=O)S(=O)(=O)c1cccc(Nc2nc(Nc3cccc(S(=O)(=O)N(CCC(N)=O)CCC(N)=O)c3)nc(Nc3ccc(/C=C/c4ccc(Nc5nc(Nc6cccc(S(=O)(=O)N(CCC(N)=O)CCC(N)=O)c6)nc(Nc6cccc(S(=O)(=O)N(CCC(N)=O)CCC(N)=O)c6)n5)cc4S(=O)(=O)O)c(S(=O)(=O)O)c3)n2)c1 [Example 1, 4,4'-Bis[4.6-di[3-aminophenyl-N,N-bis(2-carbamoyl-ethyl)sulfonylimino]-1,3,5-triazin-2-ylamino]-stilbene-2,2'-disulfonic acid, disodium salt]
[5]
  inhibition of syncytium formation: inhibit syncytium formation
RSV A2
  inhibition of RSV in vivo (summary): inhibit RSV in vivo
RSV A2; rat, in vivo, disodium salt
  Mean titer: 2.8 log10/g lung and 1.73 log10/g lung and 3.43 log10/g lung
Viral protein synthesis; 10 μg/ml added immediately after virus adsorption and before raising temperature to 37° C.
  viral protein synthesis: fully prevented
Viral protein synthesis; added after only 5 minutes incubation at 37° C.
  viral protein production: unimpeded

From patent publication US5852015A, “Triazine containing anionic compounds useful as antiviral agents” (American Cyanamid Company, priority 1997, dated 1998)
